Reference: US8594947B2, “Crystal structure of an angiotensin-converting enzyme (ACE) and uses thereof” (University of Bath, priority 2002, dated 2013)
Read-outs that look alike come from different tables or passages of the source.

How the values were obtained:
[1] = target: T1, tACE (Homo sapiens, UniProt P12821); experiment: Kinetic constants for tACE hydrolysis of hippuryl-L-histidyl-L-leucine (Hip-His-Leu); format: biochemical; conditions: cells expressing tACEΔ36NJ treated with the glucosidase I inhibitor
T1 construct: made in house; host or cells: CHO-K1 cells, stably transfected; soluble enzyme purified from the medium
Description: (§1) Soluble, recombinant tACE (wild-type […], ACEΔ36NJ (SEQ ID NO: 2) and ACE glycosylation mutants), is purified from conditioned media by affinity chromatography on a Sepharose-28-lisinopril affinity resin. The protein is quantitated by amino acid analysis and assayed for activity using the substrate hippuryl-L-histidyl-L-leucine , as described (Ehlers, MRE, Chen, Y—N, Riordan, JF (1991) Proc Natl Acad Sci USA 88, 1009-1013).
(§2) Assays are performed in 100 mM potassium phosphate pH 8.3 containing 300 mM NaCl. Initial velocities are calculated over a range of Hip-His-Leu concentrations (0.2-5.0 mM) under initial rate conditions and fit to the Michaelis-Menten equation. Km and Vmax values are determined by non-linear regression analysis.

[2] = cited from earlier work
[3] = system: tACE glycosylation; experiment: Inhibition of tACE glycosylation in presence of tunicamycin (cellular ACE activity, Western blot); format: cell-based; conditions: CHO cells expressing tACE-wt, 5 μg/ml tunicamycin
Description: CHO cells expressing tACE-wt are grown to confluence in 6-well plates and induced overnight in 2% medium in the absence and presence of 5 μg/ml tunicamycin. Fresh medium is added and cells are grown in the absence and presence of 5 μg/ml tunicamycin. At 6, 8, 12, 16, 20 and 24 hours detergent-solubilised cell samples are collected. After separating the proteins on 10% SDS-PAGE they are immunodetected by Western blotting.
tACE-wt (SEQ ID NO: 1), tACEΔ36, tACEΔ36-g1, -g2, -g3, -g12, -g13, -g23, -g123 and -g1234 are immunodetected by Western blotting of cell lysates and harvested medium from transfected CHO cells. Proteins are separated on 10% SDS-PAGE and transferred to nitrocellulose membrane (Hybond-C, Amersham). The membrane is probed with a polyclonal rabbit anti-human tACE antibody. The membrane is developed using the ECL chemiluminescence kit (Amersham) and visualised on autoradiographic film, as per instructions.

[4] = system: tACE; experiment: Kinetic constants for tACE hydrolysis of hippuryl-L-histidyl-L-leucine (Hip-His-Leu); format: biochemical, human; conditions: hydrolysis of Hip-His-Leu
Description: as §1, §2

CCCCN1C[C@H](O)[C@@H](O)[C@H](O)[C@H]1CO [NB-DNJ, N-butyldeoxynojirimycin]
Effect of treating the expressing cells on kinetic properties of the expressed enzymes [1]: do not alter the kinetic properties

CCOC(=O)[C@H](CCc1ccccc1)N[C@@H](C)C(=O)N1CCC[C@H]1C(=O)O [enalapril]
Risk of hospitalization for heart failure ([2]; similar black patients): no such effect | Risk of hospitalization for heart failure ([2]; white patients with left ventricular function): significant reduction

tunicamycin
Formation of mature, glycosylated tACE-wt (Western blot) [3]: partially inhibits | Cellular tACE-wt activity in treated versus untreated cells ([3]; data not shown): approximately three-fold lower

B1: tACE-wt: wild-type human testis ACE (SEQ ID NO: 1) retaining its 36-residue N-terminus, transmembrane region and juxtamembrane stalk, expressed in CHO cells (protein, listed as Homo sapiens)
chain: SQQVTVTHGTSSQATTSSQTTTHQATAHQTSAQSPNLVTDEAEASKFVEEYDRTSQVVWNEYAEANWNYNTNITTETSKILLQKNMQIANHTLKYGTQARKFDVNQLQNTTIKRIIKKVQDLERAALPAQELEEYNKILLDMETTYSVATVCHPNGSCLQLEPDLTNVMATSRKYEDLLWAWEGWRDKAGRAILQFYPKYVELINQAARLNGYVDAGDSWRSMYETPSLEQDLERLFQELQPLYLNLHAYVRRALHRHYGAQHINLEGPIPAHLLGNMWAQTWSNIYDLVVPFPSAPSMDTTEAMLKQGWTPRRMFKEADDFFTSLGLLPVPPEFWNKSMLEKPTDGREVVCHASAWDFYNGKDFRIKQCTTVNLEDLVVAHHEMGHIQYFMQYKDLPVALREGANPGFHEAIGDVLALSVSTPKHLHSLNLLSSEGGSDEHDINFLMKMALDKIAFIPFSYLVDQWRWRVFDGSITKENYNQEWWSLRLKYQGLCPPVPRTQGDFDPGAKFHIPSSVPYIRYFVSFIIQFQFHEALCQAAGHTGPLHKCDIYQSKEAGQRLATAMKLGFSRPWPEAMQLITGQPNMSASAMLSYFKPLLDWLRTENELHGEKLGWPQYNWTPNSARSEGPLPDSGRVSFLGLDLDAQQARVGQWLLLFLGIALLVATLGLSQRLFSIRHRSLHRHSHGPQFGSEVELRHS
Km ([4]; 100 mM potassium phosphate pH 8.3, 300 mM NaCl): 2700 µM | kcat ([4]; calculated molecular mass of 100 kDa): 193 s⁻¹
